According to patent US10426817B2, “Treatment of age-related macular degeneration and other eye diseases with apolipoprotein mimetics” (MacRegen, Inc., priority 2017, dated 2019):

Experiments:
[1] = test system: neutral lipids in and on the Bruch's membrane; assay: Oil red O (ORO) staining of neutral lipids in Bruch's membrane, macaque study; assay type: in vivo, Macaca fascicularis; conditions: eyes injected with L-4F vs eyes injected with placebo (scrambled L-4F); 6 monthly intravitreal injections, total 625 μg; after 6 months
Protocol: (§1) The macaque study was conducted according to accepted guidelines.
For staining with oil red O (ORO), specimens were treated with a 0.3% oil red O (Sigma-Aldrich Biochemie GmbH, Hamburg, Germany) solution (in 99% isopropanol) for 30 min at room temperature (RT), followed by immersion in a 60% isopropanol solution for 12 min. After the specimens were washed with deionized water for 3 min, counter-staining was conducted with hematoxylin (Carl Roth GmbH, Karlsruhe, Germany). The specimens were then mounted with mounting solution (Aquatex from Merck Millipore, Darmstadt, Germany), covered with a glass cover slip (Menzel-Graeser GmbH), and examined using a fully automated inverted light microscope for life science (DMI 6000 from Leica Microsystems Wetzlar, Germany). Image analysis was performed by grading the intensity of ORO staining (red color) of the Bruch's membrane (BrM) with scores ranging from 0 to 4, according to a qualitative evaluation assessed in four different regions in two separate slices from each eye (a total of 8 different regions from each eye). Qualitative ORO staining scores at the BrM and the choroid: 0=no staining; 1=+; 2=++; 3=+++; 4=++++.

[2] = test system: esterified cholesterol in the Bruch's membrane; assay: Filipin staining of esterified cholesterol in Bruch's membrane, macaque study; assay type: in vivo, Macaca fascicularis; conditions: eyes injected with L-4F vs placebo-injected eyes; 6 monthly intravitreal injections
Protocol: as §1
For staining with filipin, specimens were washed once with deionized water for 5 min and then treated with 70% ethanol for 45 min. After being washed with deionized water for 5 min, the specimens were treated with cholesterol esterase (8.12 units/mL) diluted in 0.1 M potassium phosphate buffer (PPB, pH 7.4) for 3.5 hr at 37° C. The specimens were then washed sequentially with PPB and with phosphate buffered saline (PBS) twice for 3 min, followed by a wash with cold (4° C.) PBS overnight. Filipin staining was then performed with 250 μg/mL filipin (Sigma-Aldrich Biochemie GmbH, Hamburg, Germany), diluted in N,N-dimethylformamide (Merck Millipore, Darmstadt, Germany), for 60 min at RT with light shielding. The specimens were then washed sequentially with PBS and deionized water, mounted with a mounting solution (Mowiol®, Carl Roth GmbH, Karlsruhe, Germany), covered with a glass cover slip, and examined using an inverted fluorescence microscope (DMI 6000 from Leica Microsystems, Wetzlar, Germany). Filipin fluorescence was observed using a UV filter set (λex/λem=350 nm/455 nm). […] Semiquantitative analysis of fluorescence intensity of filipin at three separate regions of the BrM was done on three different slides from the same eye (a total of 9 different regions from each eye).

[3] = test system: membrane attack complex (MAC, C5b-9); assay: Immunohistochemistry of membrane attack complex, macaque study; assay type: in vivo, Macaca fascicularis; conditions: eyes injected with L-4F vs eyes injected with the scrambled peptide; 6 monthly intravitreal injections
Protocol: as §1
(§2) Assays for immunohistochemistry of the membrane attack complex (MAC, C5b-9) and complement factor D (CFD) were performed identically except for employment of monoclonal antibodies specific for each complement component. Specimens were treated with 10 μg/mL protease K (Sigma-Aldrich Biochemie GmbH, Hamburg, Germany) in PBS for antigen retrieval for 30 min at RT. Subsequently the sections were blocked with a solution of goat serum (5% goat serum, 0.3% Triton X-100 in PBS) for 60 min at RT. The specimens were then reacted with a first antibody against either C5b-9 (diluted 1:30 in PBS, mouse monoclonal antibody, Dako Deutschland GmbH, Hamburg, Germany) or complement factor D (diluted 1:200 in PBS, mouse monoclonal antibody, Santa Cruz Biotechnology, Dallas, Tex., USA) overnight at 4° C. […] Fluorescence microscopy was conducted using an inverted fluorescence microscope (DMI 6000 from Leica Microsystems, Wetzlar, Germany) and a filter set for λex/λem=470 nm/525 nm. For the semiquantitative analysis of fluorescence intensity of C5b-9, 3-5 different regions in one slide were analyzed for 3 different slides from each eye (a total of 9-15 different regions from each eye). For the semiquantitative analysis of fluorescence intensity of complement factor D, 3 distinct regions for each eye were evaluated.

[4] = test system: complement factor D (CFD); assay: Immunohistochemistry of complement factor D, macaque study; assay type: in vivo, Macaca fascicularis; conditions: eyes injected with L-4F vs eyes injected with the scrambled peptide; 6 monthly intravitreal injections
Protocol: as §1, §2

Bruch's membrane = Bruch's membrane thickness at the temporal outer macula by electron microscopy, macaque study; assay type: in vivo, Macaca fascicularis
Protocol: as §1
Lipid deposition in the Bruch's membrane contributes to thickening of the BrM. Bruch's membrane thickness was measured at the temporal outer macula of enucleated eyes examined by electron microscopy post-mortem.

[5] = test system: geriatric macaques with naturally occurring age-related maculopathy; assay: Macaque study of age-related maculopathy: fellow-eye effects and tolerability; assay type: in vivo; conditions: 6 monthly intravitreal injections, all macaques
Protocol: as §1

[6] = test system: high-sensitivity C-reactive protein (hsCRP); conditions: cynomolgus monkey, in vivo
Protocol: The macaque study was conducted according to accepted guidelines. […] One eye per animal received 6 monthly injections of the same escalating dosages of L-4F or scrambled L-4F (total of 625 μg) in a 50 μL volume. The second eye per animal was not injected and was just observed.
Clinical laboratory tests including serology, hemograms and liver enzymes were conducted, and ophthalmic examinations were also performed, including fundus photographs, optical coherence tomography (OCT), intraocular pressure testing and blood sampling. After 7 months, all animals were sacrificed and eyes were immediately prepared for histology.
Circulating hsCRP, which is mainly produced in the liver, is a non-specific marker for systemic inflammation.

[7] = in vivo; cited from earlier work
geographic atrophy = conditions: monthly intravitreal injections of 10 mg for 18 months, cited from earlier work

## Ac-DWFKAFYDKVAEKFKEAF-NH2 [L-4F, Ac-DWFKAFYDKVAEKFKEAF-NH2 acetate salt (SEQ. ID. NO. 13)]
[1]
  reduction of lipid deposits from the BrM (oil red O staining): about 56%
[2]
  reduction of esterified cholesterol in the BrM (filipin fluorescence, semiquantitative): about 68%
[3]
  decreased level of MAC (C5b-9) in the BrM and the choriocapillaris (fluorescence intensity, semiquantitative): about 58%
[4]
  decreased level of complement factor D (fluorescence intensity, semiquantitative): about 41%
Bruch's membrane; eyes injected with L-4F vs eyes injected with placebo
  reduction of BrM thickness: about 24%
Bruch's membrane; injected eyes, electron microscopy post-mortem, mean ± SE
  BrM thickness at the temporal outer macula: 1.31 μm
[5]
  tolerability (significant adverse event or side effect): well tolerated
[6]
  blood level of hsCRP: did not increase

## aflibercept: soluble fusion protein containing one or more extracellular domains of one or more VEGFRs; anti-VEGF agent
[7]
  intravitreal half-life: about 9.0 days

## bevacizumab: anti-VEGF antibody or fragment thereof
[7]
  intravitreal half-life: about 9.8 days

## lampalizumab: antigen-binding fragment (Fab) of a humanized monoclonal antibody targeting complement factor D (CFD)
Geographic atrophy; fundus autofluorescence, vs placebo
  reduction in the area of geographic atrophy in the injected eye: about 20%
Geographic atrophy
  reduction in the area of geographic atrophy, subgroup positive for the CFI biomarker: about 44%

## ranibizumab: anti-VEGF antibody or fragment thereof
[7]
  intravitreal half-life: about 7.1 days
